Test results: patent US11541056B2, “3-hydroxy-N-(3-(7H-pyrrolo[2,3-d]pyrimidin-4-yl)phenyl)pyrrolidine-1-carboxamide derivatives” (NOVARTIS AG, priority 2018, dated 2023)
Like-named read-outs stand apart in the source and are kept apart here.

Columns and labels:
Assay type in all cases: cell-based
[1] = tested on: OCI-LY3 cells; test: Resazurin cell viability assay in DLBCL cells (OCI-LY3); conditions: Homo sapiens, OCI-Ly3, 72 h, OCI-LY3 cells (BTK independent), 50% growth inhibition, read-out: OCI-LY3 Prol GI50
Method: (§1) Compounds of the invention were tested in the following cellular assays. The terms in Table 1 are defined as follows: DC50 refers to the concentration at which 50% maximal degradation was observed; deg Amax is the extent of degradation and the value refers to the % protein remaining at the concentration at which maximum degradation is seen; Prol GI50 refers to the proliferation data and defines the concentration at which 50% growth inhibition was observed compared to the vehicle treated control at the end of the incubation time. TMD8 cells are BTK dependent and OCI-LY3 cells are BTK independent.
(§2) Cell Viability Assay in DLBCL (Diffuse Large B-Cell Lymphoma) Cells:
(§3) The effect of the BTK compounds on cell proliferation was measured by a Resazurin (Sigma, #R7017) based cell viability assay. TMD8 (BTK compound sensitive) and OCI-LY3 (BTK compound insensitive) cells were incubated for 72 h at 37° C. and 5% CO2 with the corresponding compound. Resazurin is a non-toxic, cell-permeable substrate that is virtually non-fluorescent. Upon entering living cells, Resazurin (Sigma, #R7017) is reduced to highly fluorescent Resorufin. The metabolic activity was assessed by measuring the fluorescence signal (ex. 530 nm; em. 600 nm).
(§4) TMD8 and OCI-Ly3 cells were seeded at day 0 in triplicates at a cell density of 1×10^4 cells per 150 μl/well in a 96-well plate (Costar #3904). Additional plates were prepared, in order to assess the basal metabolic activity of both cell lines at the beginning of the experiment. For these reference plates, Resazurin (Sigma, #R7017) was added to a final concentration of 13 μg/ml 3 h post seeding and was incubated for 2 h at 37° C. and 5% CO2. Following incubation, the fluorescent signal intensity of the 96-well plates was measured on a Mithras LB940 multimode plate reader at 530/600 nm (Berthold Technologies, Germany).
(§5) In parallel, 3 h post-seeding, test-plates were treated with compound at various concentrations, or with vehicle (DMSO) alone for 3 days. The compound addition to the plates was performed by using a HP D300 digital dispenser (TECAN, Switzerland). The compounds were tested in triplicate, 8-point serial dilution (1:4), with a start concentration of 10 μM for OCI-LY3 and 1 μM for the TMD8 cells, respectively. To assess the relative proliferation of the cells, Resazurin was added to each well directly to the medium to a final concentration of 13 μg/ml. The plates were incubated for 2 h at 37° C. and 5% CO2 to result in a 72 h endpoint. Following incubation, the fluorescent signal intensity of the 96-well plates were measured on a Mithras LB940 multimode plate reader at 530/600 nm (Berthold Technologies, Germany). The formation of Resorufin dye directly correlates with the number of metabolically active cells. For each triplicate treatment the mean and standard deviation were calculated and analyzed via curve fitting software to determine the respective compound concentration resulting in 50% growth inhibition (GI50) values. For each compound GI50 values were typically determined from at least 2 entirely independent experiments.
OCI-LY3 cells were acquired through a license agreement with University Health Network, Toronto, Canada. Cells are cultivated in RPMI1640 media (Gibco, #61870-010, lot. 1894759), supplemented with 10% FCS (HyClone, GE #SH30066.03, lot AB217603), 2 mM L-Glutamine (BioConcept, #5-10K50-H, lot. LA03467P), 1 mM Sodium Pyruvate (BioConcept, #5-60F00-H, lot. LB10510P), 10 mM HEPES (Gibco, #15630-056, lot. 1854074), 1% Pen/Strep (BioConcept, #4-01F00-H, lot. LB04235P).

[2] = tested on: TMD8 cells; test: Resazurin cell viability assay in DLBCL cells (TMD8); conditions: TMD8 cells (BTK dependent), 50% growth inhibition, read-out: TMD8 Prol GI50
Method: as §1, §2, §3, §4, §5
TMD8 cells were acquired through a license agreement with Tokyo Medical and Dental University, Japan. Cells are cultivated in MEM Alpha (BioConcept, #1-23F01-I, lot. LB04262P) supplemented with 10% FCS (HyClone, GE #SH30066.03, lot AB217603), 2 mM L-Glutamine (BioConcept, #5-10K50-H, lot. LA03467P), 1% Pen/Strep (BioConcept, #4-01F00-H, lot. LB04235P).

[3] = target: T1, BTK(C481S)-GFP (Homo sapiens, UniProt Q06187+Q96SW2, C481S); test: BTK(C481S)-GFP protein abundance flow cytometry assay in TMD8 cells; conditions: for BTK (C481S) Amax %: % protein remaining at concentration of maximum degradation; for DC50: concentration at which 50% maximal degradation was observed
T1 construct: with a mutagenesis reaction on pENTR221-BTK (STOP-Leu); CHYSEL (cis-acting hydrolase element, 2A) remnant after GFP; mCherry is split off as a separate protein (C); expressed in transfected cells; host or cells: TMD8 cells, lentiviral transduction with pLenti6-BTK(C481S)-GFP-CHYSEL-mCherry
Method: as §1
BTK(C481S)-GFP Protein Abundance Flow Cytometry Assay in TMD8 Cells:
Degradation of BTK(C481S) was measured in TMD8 cells expressing BTK(C481S)-GFP and mCherry from a stably integrated second generation bicistronic BTK(C481S)-GFP-CHYSEL-mCherry construct. Reduction of the GFP signal measured by flow cytometry served as readout for BTK(C481S) degradation after degrader treatment.

T1 sequence (Q06187 whole entry C481S): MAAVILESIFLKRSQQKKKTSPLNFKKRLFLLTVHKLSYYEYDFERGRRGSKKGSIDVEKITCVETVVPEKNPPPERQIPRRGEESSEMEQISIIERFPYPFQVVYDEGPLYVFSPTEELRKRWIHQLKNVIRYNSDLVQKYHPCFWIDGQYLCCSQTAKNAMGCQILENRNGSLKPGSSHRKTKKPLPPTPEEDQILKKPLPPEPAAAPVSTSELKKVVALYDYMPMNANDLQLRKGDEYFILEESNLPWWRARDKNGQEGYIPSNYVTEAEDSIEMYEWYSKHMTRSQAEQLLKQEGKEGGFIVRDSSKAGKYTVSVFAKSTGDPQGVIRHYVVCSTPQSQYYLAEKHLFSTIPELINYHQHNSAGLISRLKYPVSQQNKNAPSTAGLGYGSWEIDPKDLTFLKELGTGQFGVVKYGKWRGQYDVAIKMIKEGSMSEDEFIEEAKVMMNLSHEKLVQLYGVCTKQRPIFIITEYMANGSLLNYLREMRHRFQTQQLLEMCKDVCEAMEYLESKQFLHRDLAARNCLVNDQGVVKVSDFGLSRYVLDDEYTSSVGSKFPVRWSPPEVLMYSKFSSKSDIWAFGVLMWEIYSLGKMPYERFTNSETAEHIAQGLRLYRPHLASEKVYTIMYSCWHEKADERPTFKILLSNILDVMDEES
T1 sequence (Q96SW2 whole entry): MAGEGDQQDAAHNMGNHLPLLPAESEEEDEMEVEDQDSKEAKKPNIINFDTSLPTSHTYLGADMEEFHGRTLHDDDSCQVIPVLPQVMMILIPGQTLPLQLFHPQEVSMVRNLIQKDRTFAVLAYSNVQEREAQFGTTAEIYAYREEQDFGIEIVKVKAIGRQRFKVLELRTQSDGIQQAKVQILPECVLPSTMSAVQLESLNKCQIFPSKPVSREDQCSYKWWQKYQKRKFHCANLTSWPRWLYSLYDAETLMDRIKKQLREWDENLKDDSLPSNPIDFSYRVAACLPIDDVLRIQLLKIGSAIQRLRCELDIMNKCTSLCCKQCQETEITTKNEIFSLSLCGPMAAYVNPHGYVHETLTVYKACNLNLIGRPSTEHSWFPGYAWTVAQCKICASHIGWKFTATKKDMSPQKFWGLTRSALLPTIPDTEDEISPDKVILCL
T1 sequence (Q16531 whole entry partner): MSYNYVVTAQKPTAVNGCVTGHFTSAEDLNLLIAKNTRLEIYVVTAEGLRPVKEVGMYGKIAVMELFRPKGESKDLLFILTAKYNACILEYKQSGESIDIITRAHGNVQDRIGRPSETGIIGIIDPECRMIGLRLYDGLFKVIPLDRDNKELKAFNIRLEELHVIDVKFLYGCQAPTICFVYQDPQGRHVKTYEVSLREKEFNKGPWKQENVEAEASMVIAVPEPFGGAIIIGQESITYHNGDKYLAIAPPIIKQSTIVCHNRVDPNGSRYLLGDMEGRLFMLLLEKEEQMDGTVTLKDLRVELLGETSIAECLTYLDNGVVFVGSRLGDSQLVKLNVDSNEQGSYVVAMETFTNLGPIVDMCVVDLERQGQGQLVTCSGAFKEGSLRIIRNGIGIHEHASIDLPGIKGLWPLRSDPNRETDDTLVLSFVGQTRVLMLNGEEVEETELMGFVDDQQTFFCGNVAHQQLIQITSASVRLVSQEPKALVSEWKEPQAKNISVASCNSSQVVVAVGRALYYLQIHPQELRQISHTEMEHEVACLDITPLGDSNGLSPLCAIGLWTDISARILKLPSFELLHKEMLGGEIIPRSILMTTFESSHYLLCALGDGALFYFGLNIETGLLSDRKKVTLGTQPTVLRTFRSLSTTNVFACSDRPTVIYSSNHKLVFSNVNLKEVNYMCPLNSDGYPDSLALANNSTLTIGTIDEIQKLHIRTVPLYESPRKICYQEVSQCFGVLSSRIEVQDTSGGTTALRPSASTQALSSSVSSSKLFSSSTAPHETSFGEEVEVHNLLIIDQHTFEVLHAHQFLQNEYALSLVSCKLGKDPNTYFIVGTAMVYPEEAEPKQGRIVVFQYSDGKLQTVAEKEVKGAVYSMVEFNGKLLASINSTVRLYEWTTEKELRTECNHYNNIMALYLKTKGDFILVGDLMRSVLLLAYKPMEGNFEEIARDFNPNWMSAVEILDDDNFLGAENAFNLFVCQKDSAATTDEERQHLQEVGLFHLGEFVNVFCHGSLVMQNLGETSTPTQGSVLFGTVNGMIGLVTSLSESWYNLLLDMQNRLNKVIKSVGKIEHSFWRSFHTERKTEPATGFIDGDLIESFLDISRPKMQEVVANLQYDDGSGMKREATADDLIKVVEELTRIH

| SMILES | GI50 [1] | GI50 ([2]; Homo sapiens, TMD8, 72 h) | BTK (C481S) Amax % [3] | DC50 [3] | GI50 ([2]; 72 h) |
| --- | --- | --- | --- | --- | --- |
| COc1ccc(C(=O)N2CCC(OCCN3CCN(Cc4ccc(-c5cc6c(-c7cc(F)cc(NC(=O)N8C[C@H](CC(C)C)[C@@H](O)C8)c7C)ncnc6[nH]5)cc4)CC3)CC2)cc1N1CCC(=O)NC1=O [Compound 2, (3R,4S)—N-(3-(6-(4-((4-(2-((1-(3-(2,4-Dioxotetrahydropyrimidin-1 (2H)-yl)-4-methoxybenzoyl)piperidin-4-yl)oxy)ethyl)piperazin-1-yl)methyl)phenyl)-7H-pyrrolo[2,3-d]pyrimidin-4-yl)-5-fluoro-2-methylphenyl)-3-hydroxy-4-isobutylpyrrolidine-1-carboxamide] | 7730 nM | 0.31 nM | 2.0% | 0.4 nM |  |
| COc1ccc(C(=O)N2CCC(OC3CCN(Cc4ccc(-c5cc6c(-c7cc(F)cc(NC(=O)N8C[C@H](CC(C)C)[C@@H](O)C8)c7C)ncnc6[nH]5)cc4)CC3)CC2)cc1N1CCC(=O)NC1=O [Compound 8, (3R,4S)—N-(3-(6-(4-((4-((1-(3-(2,4-Dioxotetrahydropyrimidin-1(2H)-yl)-4-methoxybenzoyl)piperidin-4-yl)oxy)piperidin-1-yl)methyl)phenyl)-7H-pyrrolo[2,3-d]pyrimidin-4-yl)-5-fluoro-2-methylphenyl)-3-hydroxy-4-isobutylpyrrolidine-1-carboxamide] | > 10000 nM | 0.4 nM | 2.7% | 0.4 nM |  |
| COc1ccc(C(=O)N2CCC3(CCN(Cc4ccc(-c5cc6c(-c7cc(F)cc(NC(=O)N8C[C@@H](CC(C)C)[C@H](O)C8)c7C)ncnc6[nH]5)cc4)CC3)CC2)cc1N1CCC(=O)NC1=O [Compound 1, (3S,4R)—N-(3-(6-(4-((9-(3-(2,4-Dioxotetrahydropyrimidin-1(2H)-yl)-4-methoxybenzoyl)-3,9-diazaspiro[5.5]undecan-3-yl)methyl)phenyl)-7H-pyrrolo[2,3-d]pyrimidin-4-yl)-5-fluoro-2-methylphenyl)-3-hydroxy-4-isobutylpyrrolidine-1-carboxamide] | 7120 nM | 14 nM | 3.6% | 41 nM |  |
| COc1ccc(C(=O)N2CCC3(CCN(CCc4ccc(-c5cc6c(-c7cc(F)cc(NC(=O)N8C[C@@H](CC(C)C)[C@H](O)C8)c7C)ncnc6[nH]5)cc4)CC3)CC2)cc1N1CCC(=O)NC1=O [Compound 19, (3S,4R)—N-(3-(6-(4-(2-(9-(3-(2,4-dioxotetrahydropyrimidin-1(2H)-yl)-4-methoxybenzoyl)-3,9-diazaspiro[5.5]undecan-3-yl)ethyl)phenyl)-7H-pyrrolo[2,3-d]pyrimidin-4-yl)-5-fluoro-2-methylphenyl)-3-hydroxy-4-isobutylpyrrolidine-1-carboxamide] | > 10000 nM | 4.87 nM | 2.9% | 16 nM |  |
| COc1ccc(C(=O)N2CCC(CN3CCC(Oc4ccc(-c5cc6c(-c7cc(F)cc(NC(=O)N8C[C@H](CC(C)C)[C@@H](O)C8)c7C)ncnc6[nH]5)cc4)CC3)CC2)cc1N1CCC(=O)NC1=O [Compound 11, (3R,4S)—N-(3-(6-(4-((1-((1-(3-(2,4-Dioxotetrahydropyrimidin-1 (2H)-yl)-4-methoxybenzoyl)piperidin-4-yl)methyl)piperidin-4-yl)oxy)phenyl)-7H-pyrrolo[2,3-d]pyrimidin-4-yl)-5-fluoro-2-methylphenyl)-3-hydroxy-4-isobutylpyrrolidine-1-carboxamide] | 3510 nM | 0.18 nM | 2.2% | 0.2 nM |  |
| COc1ccc(C(=O)N2CCC3(CCN(Cc4ccc(-c5cc6c(-c7cc(F)cc(NC(=O)N8C[C@H](CC(C)C)[C@@H](O)C8)c7C)ncnc6[nH]5)cc4)CC3)CC2)cc1N1CCC(=O)NC1=O [Compound 6, (3R,4S)—N-(3-(6-(4-((9-(3-(2,4-Dioxotetrahydropyrimidin-1(2H)-yl)-4-methoxybenzoyl)-3,9-diazaspiro[5.5]undecan-3-yl)methyl)phenyl)-7H-pyrrolo[2,3-d]pyrimidin-4-yl)-5-fluoro-2-methylphenyl)-3-hydroxy-4-isobutylpyrrolidine-1-carboxamide] | 9920 nM | 0.45 nM | 2.1% | 0.7 nM |  |
| COc1ccc(C(=O)N2CCC(CCN3CCC(OCc4ccc(-c5cc6c(-c7cc(F)cc(NC(=O)N8C[C@H](CC(C)C)[C@@H](O)C8)c7C)ncnc6[nH]5)cc4)CC3)CC2)cc1N1CCC(=O)NC1=O [Compound 22, (3R,4S)—N-(3-(6-(4-(((1-(2-(1-(3-(2,4-Dioxotetrahydropyrimidin-1 (2H)-yl)-4-methoxybenzoyl)piperidin-4-yl)ethyl)piperidin-4-yl)oxy)methyl)phenyl)-7H-pyrrolo[2,3-d]pyrimidin-4-yl)-5-fluoro-2-methylphenyl)-3-hydroxy-4-isobutylpyrrolidine-1-carboxamide] | 6680 nM | 0.23 nM | 2.1% | 0.4 nM |  |
| COc1ccc(C(=O)N2CCC(CN3CCN(Cc4ccc(-c5cc6c(-c7cc(F)cc(NC(=O)N8C[C@H](CC(C)C)[C@@H](O)C8)c7C)ncnc6[nH]5)cc4)CC3)CC2)cc1N1CCC(=O)NC1=O [Compound 12, (3R,4S)—N-(3-(6-(4-((4-((1-(3-(2,4-Dioxotetrahydropyrimidin-1(2H)-yl)-4-methoxybenzoyl)piperidin-4-yl)methyl)piperazin-1-yl)methyl)phenyl)-7H-pyrrolo[2,3-d]pyrimidin-4-yl)-5-fluoro-2-methylphenyl)-3-hydroxy-4-isobutylpyrrolidine-1-carboxamide] | > 10000 nM | 0.3 nM | 3.0% | 0.3 nM |  |
| COc1ccc(C(=O)N2CCC3(CCN(Cc4ccc(-c5cc6c(-c7cc(F)cc(NC(=O)N8C[C@@H](CC(C)C)[C@H](O)C8)c7C)ncnc6[nH]5)cc4)CC3)CC2)cc1N1CCC(=O)NC1=O (racemic) [Compound 5, trans-rac-N-(3-(6-(4-((9-(3-(2,4-Dioxotetrahydropyrimidin-1(2H)-yl)-4-methoxybenzoyl)-3,9-diazaspiro[5.5]undecan-3-yl)methyl)phenyl)-7H-pyrrolo[2,3-d]pyrimidin-4-yl)-5-fluoro-2-methylphenyl)-3-hydroxy-4-isobutylpyrrolidine-1-carboxamide] | 7460 nM |  | 2.0% | 1.3 nM | 0.73 nM |
